We go through 12 molecules from patent publication US9233185B2, “Absorbent article” (UNICHARM CORPORATION, priority 2012, dated 2016).

Data set [1] can be described thus: Rewetting rate of sanitary napkin with top sheet coated with blood modifying agent. Particulars: horse EDTA blood 3.0 g twice at 37±1° C.; agent coated on top sheet at about 5 g/m^2. Here is the method:
A commercially available sanitary napkin was prepared. The sanitary napkin was formed from a top sheet, formed of a hydrophilic agent-treated air-through nonwoven fabric (composite fiber composed of polyester and polyethylene terephthalate, basis weight: 35 g/m^2), a second sheet, formed of an air-through nonwoven fabric (composite fiber composed of polyester and polyethylene terephthalate, basis weight: 30 g/m^2), an absorbent body comprising pulp (basis weight: 150-450 g/m^2, increased at the center section), an acrylic super-absorbent polymer (basis weight: 15 g/m^2) and tissue as a core wrap, a water-repellent agent-treated side sheet, and a back sheet composed of a polyethylene film.
(§1) The skin contact surface of the top sheet of the sanitary napkin was coated with the aforementioned blood modifying agent. Each blood modifying agent was used directly, when the blood modifying agent was liquid at room temperature, or when the blood modifying agent was solid at room temperature it was heated to its melting point +20° C., and a control seam HMA gun was used for atomization of the blood modifying agent and coating onto the entire skin contact surface of the top sheet to a basis weight of about 5 g/m^2.
(§2) An acrylic board with an opened hole (200 mm×100 mm, 125 g, with a 40 mm×10 mm hole opened at the center) was placed on a top sheet comprising each blood modifying agent, and 3.0 g of horse EDTA blood at 37±1° C. (obtained by adding ethylenediaminetetraacetic acid (hereunder, “EDTA”) to horse blood to prevent coagulation) was dropped through the hole using a pipette (once), and after 1 minute, 3.0 g of horse EDTA blood at 37±1° C. was again added dropwise through the acrylic board hole with a pipette (twice).
After the second dropping of blood, the acrylic board was immediately removed and 10 sheets of filter paper (Advantec Toyo Kaisha, Ltd, Qualitative Filter Paper No. 2, 50 mm×35 mm) were placed on the location where the blood had been dropped, and then a weight was placed thereover to a pressure of 30 g/cm^2. After 1 minute, the filter paper was removed, and the “rewetting rate” was calculated by the following formula. Rewetting rate(%)=100×(filter paper mass after test−initial filter paper mass)/6

Data set [2] in a line: Visual evaluation of whiteness of skin contact surface of top sheet. Also noted: species or system horse; key: VG (Very Good): Virtually no redness of blood remaining, and no clear delineation between areas with and without blood.; G (Good): Slight redness of blood remaining, but difficult to delineate between areas with and without blood.; F (Fair): Slight redness of blood remaining, areas with blood discernible.; P (Poor): Redness of blood completely remaining. Particulars: after absorbent body migration rate test. From the text: The whiteness of the skin contact surface of the top sheet after the absorbent body migration rate test was visually evaluated on the following scale.
VG (Very Good): Virtually no redness of blood remaining, and no clear delineation between areas with and without blood.
G (Good): Slight redness of blood remaining, but difficult to delineate between areas with and without blood.
F (Fair): Slight redness of blood remaining, areas with blood discernible.
P (Poor): Redness of blood completely remaining.

On data set [3], the source says: The term “solubility” used herein in regard to water solubility includes cases where the sample completely dissolves in deionized water to form a homogeneous mixture, and cases where the sample is completely emulsified. Here, “completely” means that no mass of the sample remains in the deionized water.
The nature of data set [4]: Absorbent body migration rate after second dropping of blood. The following applies: time after second dropping of horse EDTA blood; agent about 5 g/m^2. Here is the method: as §1, §2
In addition to the rewetting rate evaluation, the “absorbent body migration rate” was also measured as the time until migration of blood from the top sheet to the absorbent body after the second dropping of blood. The absorbent body migration rate is the time from introducing the blood onto the top sheet, until the redness of the blood […] on the surface and in the interior of the top sheet.

Data set [5] in a line: Surface tension of blood containing blood modifying agent, pendant drop method. The following applies: sheep defibrinated blood; amount 0.10 mass %; 35 ° C. Here is the method:
The surface tension of blood containing a blood modifying agent was measured by the pendant drop method, using a Drop Master500 contact angle meter by Kyowa Interface Science Co., Ltd. The surface tension was measured after adding a prescribed amount of blood modifying agent to sheep defibrinated blood, and thoroughly shaking. The measurement was accomplished automatically with a device, and the surface tension γ was determined by the following formula (see FIG. 10). γ=g×ρ×(de)^2×1/H The density ρ was measured at the temperatures listed in Table 7, according to JIS K 2249-1995, “Density test methods and density/mass/volume conversion tables”, “5. Vibrating density test method”. The measurement was accomplished using a DA-505 by Kyoto Electronics Co., Ltd.

In data set [1], `CCCCCCCCCCCC(=O)OCC(O)CO` (centres unmarked) [90-L2 Lauric acid monoglyceride, lauric acid monoglyceride] yielded a Rewetting rate of 6.2%. Besides, the Top sheet whiteness entry in data set [2] is given as “P”.

With `CC(C)CCCCCCCCCCCCCCCOC(=O)CC(O)C(=O)OCCCCCCCCCCCCCCCC(C)C` (centres unmarked) [Diisostearyl malate], in data set [1], the Rewetting rate was found to be 5.5%. Further, in data set [2], the Top sheet whiteness result is “F”. Besides, the Water solubility in data set [3] is on record as 20< g. Further, the “Absorbent body migration rate” value in data set [4] was determined as 8 s.

For `CCCCCCCCOC(=O)CCCCC(=O)OCCCCCCCC` [Dioctyl adipate], the Rewetting rate in data set [1] stood at 1.7%. The Top sheet whiteness result in data set [2] is “VG”. Further, the “Absorbent body migration rate” value in data set [4] amounted to 6 s.

`CCCCCCCCCCCCOC(=O)CCCCCCCCCCC` [ELECTOL WE20, Ester of dodecanoic acid (C12) and dodecyl alcohol (C12)] gave a Rewetting rate in data set [1] of 1.8%. Besides, the Top sheet whiteness result in data set [2] was “VG”. In data set [5], the Surface tension is 58.8 mN/m.

As for `CCCCCCCCCCCCCC(=O)OCCCCCCCCCCCC` [ELECTOL WE40, Ester of tetradecanoic acid (C14) and dodecyl alcohol (C12)], the Rewetting rate in data set [1] worked out at 1.8%. For the same molecule, the Top sheet whiteness result in data set [2] is recorded as “VG”. Moreover, in data set [4], the “Absorbent body migration rate” value came to 4 s.

In turn, `CCCCC(CC)C(=O)OCC(C)(C)COC(=O)C(CC)CCCC` (centres unmarked) [H-208BRS, Neopentyl glycol di(2-ethylhexanoate)] displayed a Rewetting rate in data set [1] of 2.0%. Further, the Top sheet whiteness result in data set [2] is on record as “VG”. Besides, the Water solubility in data set [3] is recorded as below 0.05 g. Moreover, the “Absorbent body migration rate” value in data set [4] turned out to be 5 s.

In the case of `CCCCC(CC)C(=O)OCC(COC(=O)C(CC)CCCC)(COC(=O)C(CC)CCCC)COC(=O)C(CC)CCCC` (centres unmarked) [H-408BRS, Pentaerythritol tetra(2-ethylhexanoate)], the Top sheet whiteness entry in data set [2] is “VG”.

For the molecule `CCCCC(CC)C(=O)OCC(COC(=O)C(CC)CCCC)OC(=O)C(CC)CCCC` (centres unmarked) [PANACET 800B], the Rewetting rate in data set [1] came out at 2.0%. The Top sheet whiteness entry in data set [2] was “VG”. The Water solubility in data set [3] is given as below 0.05 g. For the same molecule, in data set [4], the “Absorbent body migration rate” value stood at 3 s.

With `CCCCCCCC(=O)OCC(COC(=O)CCCCCCC)OC(=O)CCCCCCC` [PANACET 800], in data set [1], the Rewetting rate is 0.3%. Further, the Top sheet whiteness result in data set [2] is listed as “VG”. Also, in data set [3], the Water solubility is given as below 0.05 g. In addition, the “Absorbent body migration rate” value in data set [4] came out at 3 s.

The molecule `CCCCOC(=O)CC(CC(=O)OCCCC)(OC(C)=O)C(=O)OCCCC` [Tributyl O-acetylcitrate] displayed a Rewetting rate in data set [1] of 6.2%. The Top sheet whiteness entry in data set [2] is recorded as “VG”. In addition, the Water solubility in data set [3] is recorded as below 0.05 g. Further, the “Absorbent body migration rate” value in data set [4] amounted to 8 s.

In data set [1], “Caprylic acid diglyceride [Caprylic diglyceride]” yielded a Rewetting rate of 4.2%. Besides, the Top sheet whiteness entry in data set [2] is recorded as “G”. Moreover, in data set [4], the “Absorbent body migration rate” value stood at 9 s.

In turn, Isopropyl citrate registered a Rewetting rate in data set [1] of 12.2%. The Top sheet whiteness result in data set [2] is “G”. Further, in data set [4], the “Absorbent body migration rate” value is 5 s.
